Calls of active or inactive are those of the source. No rule for the calls is given here. Some results are limits rather than exact numbers.

Broadly, the IC50 is the concentration that inhibits the measured activity by half.

This experiment deals with HepG2 cytotoxicity. Kind of experiment: human hepatoma cell viability loss – cytotoxicity control (AID 1159563).
Consider `COc1ccc(S(=O)(=O)NC(C)C)cc1Nc1ncc(-c2cccc(F)c2)cn1`, for which the IC50 is > 100 µM (inactive).

As to `O=C(N1CCc2ccccc2CC1)C1(C(=O)N2CCC(n3c(=O)[nH]c4ncccc43)CC2)CC1`, the IC50 was > 100 µM (inactive).

For the compound `Cc1ccc2nc(N(Cc3cccnc3)C(=O)CCc3ccccc3)sc2c1`, the IC50 is > 100 µM (inactive).

`CC(c1cc(Cl)cc(Cl)c1)N(C)c1ncc2c(N)nc(N)nc2n1` (stereo not drawn): the IC50 is 63 µM.

Turning to `COc1ccc(C2=NCC(CSc3nnc(-c4ccc5c(c4)OCO5)o3)S2)cc1` (stereo not drawn), the IC50 was > 100 µM (inactive).

Consider `O=C(Nc1ccc(C(=O)N2CCCC2c2ccc3c(c2)OCCCO3)cc1)c1ccco1` (stereo not drawn), for which the IC50 was > 100 µM (inactive).

Take `Cc1nc(C(=O)Nc2ccc3c(c2)OCO3)nn1-c1ccc(F)cc1`: the IC50 is > 100 µM (inactive).

For `COCc1cc(Nc2cccc(Cl)c2)nc(-c2ccccn2)n1`, the IC50 is 40 µM.

For `O=C(Nc1ccc(Br)cn1)c1ccc(Cn2cnc([N+](=O)[O-])n2)cc1`, the IC50 is > 100 µM (inactive).

`Cn1cc(CN2CCN(c3ccc4c(c3)CCN(C(=O)[C@H]3C[C@@H]3c3ccccc3)CC4)CC2)cn1`: the IC50 is 50 µM.

With `Cc1ccc(C)c(OC2CCN(C(=O)C(C)n3ccnc3)CC2)c1` (stereo not drawn), the IC50 was > 100 µM (inactive).

Consider `COc1cccc(Nc2cc(C)nc(-c3ccccn3)n2)c1`, for which the IC50 is 50 µM.

For the compound `CS(=O)(=O)c1cccc(CNC(=O)c2cncc(N3CCN(c4ccc(F)cc4)CC3)c2)c1`, the IC50 is > 100 µM (inactive).

On to `CCn1c(-c2nonc2N)nc2c([C@@H](C)O)ncc(O[C@H](CN)c3ccccc3)c21`, for which the IC50 is 79 µM.

Take `CCOc1cc(NCCCN2CCN(C)CC2)c2ncccc2c1`: the IC50 was 32 µM.

Turning to `Cc1ccc2c(c1)SC(C(=O)Nc1n[nH]c(-c3ccccn3)n1)C2` (stereo not drawn), the IC50 is 25 µM.

Take `COc1cc(Nc2nccc(Nc3onc(C)c3C)n2)cc(S(=O)(=O)C2CCOCC2)c1`: the IC50 was 32 µM.

As for `O=C(c1cc2cc(Cl)ccc2[nH]1)N1CCCCC1c1cccnc1` (stereo not drawn), the IC50 was 40 µM.

Turning to `O=C(CCc1ccc(-c2ccccc2)o1)N1CCN(c2ccc(O)cc2)CC1`, the IC50 was > 100 µM (inactive).

Take `Cc1nn(C2CCS(=O)(=O)C2)c(C)c1CN(C)C(=O)C=Cc1sc2ccccc2c1Cl` (stereo not drawn): the IC50 was > 100 µM (inactive).

For the compound `c1ccc(Nc2nc(-c3ccccn3)cc(N3CCOCC3)n2)cc1`, the IC50 was > 100 µM (inactive).

For `CCCN1CCN(Cc2ccc(S(=O)(=O)Nc3cccc(C)c3)cc2)CC1`, the IC50 was > 100 µM (inactive).

For `O=C(Cn1cnc2c(-c3ccccc3)csc2c1=O)N1CCCCC1`, the IC50 is > 100 µM (inactive).

Consider `Cc1nn(-c2nc3ccccc3[nH]2)c2c1C(c1ccc(O)cc1)CC(=O)N2` (stereo not drawn), for which the IC50 was 25 µM.

For `OCC1CCCCN1c1cc(-c2ccccn2)nc(Nc2ccccc2)n1` (stereo not drawn), the IC50 was 32 µM.

As for `COc1cccc(C(=O)[C@H]2C[C@@H]2CN(Cc2cccnc2)Cc2cccnc2)c1`, the IC50 is > 100 µM (inactive).

In the case of `COc1ccc(NC(=O)c2ccc(NC(=O)CN(c3ccccc3C)S(C)(=O)=O)cc2)cc1`, the IC50 was 40 µM.

In the case of `O=C(CN(Cc1ccccn1)Cc1ccccn1)NCc1csc(-c2cccs2)n1`, the IC50 was > 100 µM (inactive).

As for `CCN(CC)c1ccc(S(=O)(=O)N(CC)CC)c2nonc12`, the IC50 was > 100 µM (inactive).

In the case of `O=C(NC(CO)c1ccc(F)cc1)c1ccc(-c2c[nH]c3ncccc23)s1` (stereo not drawn), the IC50 was 40 µM.

Turning to `CNC(=O)Oc1ccc(C(=O)NCc2ccccc2)cc1OC(=O)NC`, the IC50 is > 100 µM (inactive).

Take `Cc1cc(Nc2ccc(C#N)c(Cl)c2C)n[nH]1`: the IC50 was > 100 µM (inactive).

For the compound `Cc1c(C(=O)NCCCCn2ccnc2)oc2c(C)cccc12`, the IC50 is 79 µM.

Take `CNc1c(C(N)=O)c(-c2ccc3scnc3c2)nn1CC(F)(F)F`: the IC50 was > 100 µM (inactive).

On to `COc1ccc(C(=O)NC2CCN(CCn3c(=O)ccc4ncc(F)cc43)CC2)cc1Cl`, for which the IC50 is > 100 µM (inactive).

As to `Cc1ccccc1CNC(=O)CN(Cc1ccccn1)Cc1ccccn1`, the IC50 is > 160 µM (inactive).

Turning to `COc1ccc(Nc2nc(-c3ccccn3)cs2)c(OC)c1`, the IC50 was > 100 µM (inactive).

As to `O=S1N=C(NCCCN(Cc2ccc(F)cc2)c2ccccn2)C(NCc2ccncc2)=N1` (stereo not drawn), the IC50 is 79 µM.

For `NC(=O)c1ncc(N[C@@H]2CCCNC2)nc1Nc1cccc(Cl)c1`, the IC50 is 10 µM.

Turning to `COc1ccc(C(=O)N2CCC(Nc3cccnc3)C2)c(OC)n1` (stereo not drawn), the IC50 was > 100 µM (inactive).

For `Cc1nnnn1-c1cccc(C(=O)N2CCC[C@@]3(C)c4ncncc4CCC23)c1` (stereo partly drawn), the IC50 is > 100 µM (inactive).

Consider `O=c1cc(NCCCNCc2cc(C(F)(F)F)cs2)[nH]c2ccccc12`, for which the IC50 was 63 µM.

For the compound `CC(C)(C)C(O)(CCc1ccc(Cl)cc1)Cn1cncn1` (stereo not drawn), the IC50 is > 100 µM (inactive).

As for `O=C(Cn1cnc2cc([N+](=O)[O-])ccc2c1=O)NCCc1ccc(Cl)cc1Cl`, the IC50 is > 100 µM (inactive).

On to `CCN(Cc1ccncc1)Cc1ccc(NC(=O)c2cc(-c3ccc(F)cc3)n[nH]2)cc1`, for which the IC50 was > 100 µM (inactive).

With `CC(=O)Nc1ccc(-c2cnc(N)c(-c3nc4ccc(F)cc4[nH]3)c2)cc1`, the IC50 is 10 µM.

In the case of `COc1ccc(Cl)cc1CC(=O)Nc1n[nH]c(-c2ccccn2)n1`, the IC50 was 32 µM.

With `COc1cc(-c2noc(CC#N)n2)ccc1OC(F)F`, the IC50 is > 100 µM (inactive).

Consider `CN(C(=O)Nc1ccc2c(c1)CCN(C1CCC1)CC2)c1ccc(C#N)cc1`, for which the IC50 was > 100 µM (inactive).

Consider `O=S(=O)(NCC(c1cccnc1)N1CCN(c2ccc(F)cc2)CC1)c1cccs1` (stereo not drawn), for which the IC50 was > 100 µM (inactive).

Consider `Cc1ccccc1OCC(=O)N1CCCN(c2cccnn2)CC1`, for which the IC50 was > 100 µM (inactive).

`CCOC(=O)c1cn[nH]c1S(=O)(=O)N1CCC1c1ccccc1` (stereo not drawn): the IC50 is > 100 µM (inactive).

For `Cc1ccc(C)c(CN2C(=O)NC3(CCc4ccccc43)C2=O)c1` (stereo not drawn), the IC50 was > 100 µM (inactive).

For the compound `CC1=C(C(=O)Nc2ccc(Cl)cc2)C(c2ccncc2)n2ncc(C(=O)Nc3ccccc3)c2N1` (stereo not drawn), the IC50 is 79 µM.

In the case of `O=C(C1CCCCC1)N1CCN(c2nnc(-c3ccccc3)c3ccccc23)CC1`, the IC50 was > 100 µM (inactive).

Take `Cc1nc2c(-c3cccs3)c(C)nn2c(NCCO)c1C`: the IC50 was > 100 µM (inactive).

Turning to `c1ccc(-c2nc(NCc3ccco3)c3ccccc3n2)nc1`, the IC50 was > 100 µM (inactive).

Take `O=[N+]([O-])c1cccc(Nc2cncc(-c3ccccc3CO)c2)c1`: the IC50 is > 100 µM (inactive).

For `O=C(NCc1ccc(Cl)cc1)C1CN(C(=O)c2ccc(F)cc2)CCS1` (stereo not drawn), the IC50 was > 100 µM (inactive).

For `CN(C)Cc1ccc(N2CCC(NS(=O)(=O)c3ccc(Cl)cc3)CC2)cc1`, the 50% inhibitory concentration (IC50) is 50 µM.

`Cn1nc(-c2ccc(NC(=O)Cc3ccccc3Cl)cc2)c2c(N)ncnc21`: the IC50 was > 100 µM (inactive).

As to `O=C(Nc1ccc(-c2nc3ccccc3c(=O)[nH]2)cc1)c1cccs1`, the IC50 is > 100 µM (inactive).

With `CC(C)(C)C(=O)NCCc1csc(-c2ccc(F)cc2)n1`, the IC50 was > 100 µM (inactive).

On to `CCN(CC)S(=O)(=O)c1ccc(C(=O)Nc2cc(C)nn2-c2nc(C)c(C)c(=O)[nH]2)cc1`, for which the IC50 was > 100 µM (inactive).

For `O=C(NCC(c1cccnc1)N1CCc2ccccc2C1)C(=O)Nc1cccc(Cl)c1` (stereo not drawn), the IC50 was > 100 µM (inactive).

On to `COc1ccc(C(C)N(C)c2ncc3c(N)nc(N)nc3n2)cc1F` (stereo not drawn), for which the IC50 was > 100 µM (inactive).

With `N#Cc1ccc(S(=O)(=O)N2CCN(Cc3cccc(-c4ccncc4)c3)CC2)cc1`, the IC50 is > 100 µM (inactive).

In the case of `CC(c1ccccn1)N(C)Cc1nc2ccccc2n1C(C)C` (stereo not drawn), the IC50 was 25 µM.

For the compound `COc1ccnc2[nH]cc(-c3cc(C(=O)N[C@H](CO)c4ccccc4)co3)c12`, the IC50 is 16 µM.

For `Cc1nc2c(-c3ncn[nH]3)cc(NC(=O)Cc3ccccc3)cn2c1C`, the IC50 is 16 µM.

Consider `CCN(CC)S(=O)(=O)c1ccc(C)c(NC(=O)c2cc(Cl)c3c(c2)OCO3)c1`, for which the IC50 was > 100 µM (inactive).

For `O=C1COC(c2ccccc2)(c2ccccc2)CN1C1CCN(Cc2ccc(-n3ccnc3)cc2)CC1`, the IC50 was 50 µM.

Consider `Cn1ccnc1CN1CCc2[nH]cnc2C1c1ccccc1OCc1ccccc1` (stereo not drawn), for which the IC50 is > 100 µM (inactive).

Regarding `N#Cc1ccc(C(=O)Nc2cccc(-c3cccc(CN4CCC(O)CC4)c3)c2)cc1`, the IC50 was 40 µM.

`O=C1CSC(c2cccnc2)N1c1ccc(Cl)cc1Cl` (stereo not drawn): the IC50 was > 100 µM (inactive).

For the compound `CCOc1ccc(N(C)S(=O)(=O)c2ccc3[nH]cc(C(=O)NC4CCCC4)c(=O)c3c2)cc1`, the 50% inhibitory concentration (IC50) was 50 µM.

Regarding `O=C(COc1nn(-c2ccccc2)c2ncccc12)NCc1ccccc1`, the IC50 is > 100 µM (inactive).

Turning to `Cc1ccc2onc(Nc3ccnc(Nc4cccc(S(C)(=O)=O)c4)n3)c2c1`, the IC50 was 50 µM.

`CC(=O)Nc1ccc(-c2ccnc(Nc3cccc(C#N)c3)n2)cc1`: the IC50 is > 100 µM (inactive).

Turning to `Cc1nc(N2CC(C)OC(C)C2)sc1C(=O)Nc1ccc2c(c1)OCO2` (stereo not drawn), the IC50 was > 100 µM (inactive).

Consider `O=C(Nc1ccc(C(F)(F)F)cc1)NC1(C(=O)NCc2ccco2)CCCCC1`, for which the IC50 was > 100 µM (inactive).

Turning to `CNc1cncc(C2CCCN2C(=O)Cc2ccc3ccccc3c2)n1` (stereo not drawn), the IC50 is > 100 µM (inactive).

As to `Cc1cc(NC(=O)c2ccc([N+](=O)[O-])s2)ccc1Br`, the IC50 was 40 µM.

Take `COc1ccc(Nc2nc(NC3CCC(O)CC3)ncc2Br)c(C(N)=O)c1` (stereo not drawn): the IC50 was > 100 µM (inactive).

Consider `CCC(=O)Nc1ccc(C(=O)Nc2ccccc2-c2ccccc2)cc1`, for which the IC50 is > 100 µM (inactive).

In the case of `O=C(Nc1nc(-c2ccc(F)cc2)cs1)c1ccc([N+](=O)[O-])s1`, the IC50 is 13 µM.

As for `Cc1ccc(CNC2CCN(C[C@@H]3Cn4c(=O)ccc5ccc(=O)n3c54)CC2)cc1F`, the IC50 is > 100 µM (inactive).

For the compound `CCc1cccc(CC)c1-n1c(SCC(=O)NC(=O)NCc2ccco2)nnc1-c1cccnc1`, the IC50 is > 100 µM (inactive).

The values above are taken from PubChem BioAssay AID1159563 (GlaxoSmithKline (GSK), 2015).
